Laboratory results reported in US20250221930A1, “A COMPOSITION COMPRISING LIPID NANOPARTICLES AND AN ANTIFUNGAL POLYENE” (INSTITUT NATIONAL DE LA SANTÉ ET DE LA RECHERCHE MÉDICALE, priority 2022, published 2025).
≈ marks a conversion by molar mass, not a printed value.

How the values were obtained:
[1] = system: Lichtheimia ramosa; assay: Checkerboard AmB MIC with surfactant in solution, inhibitory Emax model; type: cell-based; conditions: L. ramosa
Experimental: (§1) Twelve clinical isolates of Mucorales identified by ARNr sequencing were used: Rhizopus arrhizus (5), Rhizopus microsporus (1), Lichtheimia corymbifera (3), Lichtheimia ramosa (1), Mucor circinelloides (1), Rhizomucor pusillus (1). Isolates were subcultured from frozen stocks (−80° C.) on 75 cm^3 flasks containing 15 mL of Sabouraud dextrose agar (Sigma-Aldrich, St. Quentin Fallavier, France) during 3 days at 37° C. Spores were collected by flooding the flask with 10 ml of sterile water. The suspensions were filtered on nylon filter (Millipore, Carrigtwohill, Ireland) with pore size of 11 μm to remove hyphal elements. The concentration of the spore suspensions was then adjusted in sterile water to obtain inocula of 2×10^5 spores/mL.
(§2) AmB powder (Sigma-Aldrich) was dissolved in dimethyl sulfoxide to get a stock solution at 8192 mg/L stored at −80° C. for six months. On the day of use, AmB and freshly made surfactant solutions (in RPMI or PBS) were diluted in the same medium (RPMI or PBS) to obtain desired concentrations. Surfactants used (polyethylene glycol (15)-hydroxystearate (also named Solutol® HS15 or Kolliphor® HS 15, or Macrogol 15 Hydroxystearate); polyoxyethylene (10) stearyl ether (Brij® S10); polyoxyethylene (20) stearyl ether (Brij® S20); polyoxyethylene (20) oleyl ether (Brij® 020); and polyoxyethylene (10) cetyl ether (Brij® C10)), which have their chemical structure presented in FIG. 7, were purchased from Sigma-Aldrich.
(§3) AmB minimum inhibitory concentrations (MIC) of each strain of Mucorales was measured in RPMI the presence of different concentrations of surfactant as described by the EUCAST broth microdilution antifungal susceptibility test methodology with modification for the checkerboard procedure. Checkerboards were performed by adding 100 μL of two-fold dilutions of AmB (0.008 to 4 mg/L) and surfactant solutions (0.04 to 2752 mg/L) in 96 well plates. One hundred microliters of a spore suspension at a concentration of 105 spores/mL were added to the wells, and the plates were incubated for 24 h at 37° C. […] Three experiments were performed for each strain.
(§4) An inhibitory Emax model (Equation 1) developed by Chauzy et al. (Chauzy, A.; Buyck, J.; de Jonge, B. L. M.; Marchand, S.; Grégoire, N.; Couet, W. Pharmacodynamic Modelling of β-Lactam/β-Lactamase Inhibitor Checkerboard Data: Illustration with Aztreonam-Avibactam. Clin. Microbiol. Infect. 2019, 25, 515.e1-515.e4, doi: 10.1016/j.cmi.2018.11.025) to evaluate the enhancing effect of non-antibiotics molecules on the efficacy of antibiotic against bacteria was used here to describe the average decrease in AmB MIC values (MICsurf) against various Mucorales strains in relation to surfactant concentrations (Csurf).
(§5) In equation 1, MIC0 refers to the AmB MIC measured without surfactants and MIC∞ is the lowest AmB MIC measured in the presence of surfactant. The maximal ratio in AmB MIC decrease defined as maximal efficacy (Emax) was calculated as the ratio of MIC0/MIC∞. EC50 is the concentration of surfactant producing 50% of the Emax and characterizes the potency of the surfactants. These parameters were evaluated using WinNonlin software (version 6.2, Certara, NJ, USA) as described by Chauzy et al.

[2] = system: Rhizomucor pusillus; assay: as above; type: cell-based; conditions: R. pusillus
Experimental: as §1, §2, §3, §4, §5

[3] = system: Mucor circinelloides; assay: as above; type: cell-based; conditions: M. circinelloides
Experimental: as §1, §2, §3, §4, §5

[4] = system: Rhizopus microsporus; assay: as above; type: cell-based; conditions: R. microsporus
Experimental: as §1, §2, §3, §4, §5

[5] = system: Lichtheimia corymbifera; assay: as above; type: cell-based
Experimental: as §1, §2, §3, §4, §5

[6] = system: Twelve clinical isolates of Mucorales; assay: Checkerboard AmB MIC with surfactant in solution, statements over all isolates; type: cell-based
Experimental: as §1, with “spores/mL. […]” for “spores/mL.”
AmB minimum inhibitory concentrations (MIC) of each strain of Mucorales was measured in RPMI the presence of different concentrations of surfactant as described by the EUCAST broth microdilution antifungal susceptibility test methodology with modification for the checkerboard procedure. […]
as §5, with “EC50 is the concentration of surfactant producing 50% of the Emax and characterizes the potency of the surfactants.” left out

[7] = system: Lichtheimia ramosa; assay: EUCAST MICs of AmB, ISA, AmB-loaded LNPs and AmB-ISA-loaded LNPs; type: cell-based; conditions: 24 h at 37° C.
Experimental: (§6) Briefly, a mass (80-120 mg) of an oil phase consisting of triglycerides (Labrafac®, or tributyrin in different mass ratios, i.e. 100% Labrafac® to 100% tributyrin) was supplemented with AmB (0,025 to 0.2 mg) and ISA (0.25 to 5 mg) and then mixed with 80 to 120 mg of PEG15HS (Solutol HS15®) and 500 to 800 μl of water to form an oil-in-water emulsion. This emulsion was then heated to 85° C., to obtain a water-in-oil emulsion, and then cooled to 40° C. Three such temperature cycles were performed and the system was then fast cooled to 4° C. The formulated nanoparticles were then characterized by size distribution and mean zeta potential measurements. Examples of formulations of LNPs loaded with AmB and AmB-ISA are detailed in Table 5:
(§7) Rhizopus arrhizus 1, Lichtheimia corymbifera and Lichtheimia ramosa strains were used. These correspond to the most frequently encountered species in human mucormycosis. These three strains were isolated from patients suffering from pulmonary mucormycosis.
(§8) MICs of AmB in solution, ISA in solution, AmB-loaded LNPs, and AmB-ISA-loaded LNPs were evaluated according to the European Committee on Antimicrobial Susceptibility Testing (EUCAST) guidelines. Briefly, MICs were determined by adding 100 μL of two-fold dilutions of AmB in solution, ISA in solution, AmB-LNPs or AmB-ISA-LNPs (0.008 to 4 mg/L) in 96-well plates. One hundred microliters of a spore suspension at a concentration of 105 spores/mL were added to the wells, and the plates were incubated for 24 h (Mucorales) or 48 h (A. fumigatus) at 37° C. […] Three experiments were performed for each strain.

[8] = system: Rhizopus arrhizus 1; assay: as above; type: cell-based; conditions: 24 h at 37° C.
Experimental: as §6, §7, §8

[9] = system: Lichtheimia corymbifera; assay: as above; type: cell-based; conditions: 24 h at 37° C.
Experimental: as §6, §7, §8

[10] = system: L. ramosa; assay: Checkerboard MICs of AmB, ISA and PEG15HS in solution; type: cell-based, Lichtheimia ramosa; conditions: RPMI, 24 h at 37° C.
Experimental: as §3, with “RPMI in” for “RPMI”, “ISA or PEG15HS” for “surfactant”, “ISA (0.008 to 4 mg/L) or PEG15HS” for “surfactant solutions”
(§9) AmB MIC of each strain of Mucorales was measured in RPMI in the presence of different concentrations of ISA and a constant concentration of PEG15HS (100 times the concentration of AmB) as described by the EUCAST broth microdilution antifungal susceptibility test methodology with modification for the checkerboard procedure. Checkerboards were performed by adding 100 μL of two-fold dilutions of AmB (0.008 to 4 mg/L)+PEG15HS (0.8 to 400 mg/L) and ISA (0.008 to 4 mg/L) in 96 well plates. One hundred microliters of a spore suspension at a concentration of 105 spores/mL were added to the wells, and the plates were incubated for 24 h at 37° C. […] Three experiments were performed for each strain. […]

[11] = system: Aspergillus fumigatus; assay: EUCAST MICs of AmB, ISA, AmB-loaded LNPs and AmB-ISA-loaded LNPs; type: cell-based; conditions: 48 h at 37° C.
Experimental: as §6
Two reference strains (ATCC 16424 and ATCC 204305) and a clinical azole-resistant strain (AfR2) of Aspergillus fumigatus were used.
as §8

[12] = system: Rhizopus arrhizus 1; assay: Checkerboard MICs of AmB, ISA and PEG15HS in solution; type: cell-based; conditions: RPMI, 24 h at 37° C.
Experimental: as §3, with “RPMI in” for “RPMI”, “ISA or PEG15HS” for “surfactant”, “ISA (0.008 to 4 mg/L) or PEG15HS” for “surfactant solutions”
as §9

[13] = system: L. corymbifera; assay: as above; type: cell-based, Lichtheimia corymbifera; conditions: RPMI, 24 h at 37° C.
Experimental: as §3, with “RPMI in” for “RPMI”, “ISA or PEG15HS” for “surfactant”, “ISA (0.008 to 4 mg/L) or PEG15HS” for “surfactant solutions”
as §9

[14] = system: Lichtheimia ramosa; assay: MIC of AmB in solution with blank lipid nanoparticles (BLNPs), EUCAST broth microdilution; type: cell-based; conditions: AmB in solution in RPMI, without PEG15HS LNPs
Experimental: MICs for each fungi were measured in the presence of different concentrations of AmB (solubilized in the LNP suspensions or loaded in the LNP) as described by the EUCAST broth microdilution antifungal susceptibility test methodology (EUCAST DEFINITIVE DOCUMENT E.Def 9.3.2 Apr. 2020. EUCAST antifungal MIC method for mould).
A clinical isolate of Lichtheimia ramosa was used. Isolate were subcultured from frozen stocks (−80° C.) on 75 cm^3 flasks containing 15 ml of Sabouraud dextrose agar (Sigma-Aldrich, St. Quentin Fallavier, France) during 3 days at 37° C. Spores were collected by flooding the flask with 10 mL of sterile water. The suspensions were filtered on nylon filter (Millipore, Carrigtwohill, Ireland) with pore size of 11 μm to remove hyphal elements. The concentration of the spore suspensions was then adjusted in sterile water to obtain inocula of 2×10^5 spores/mL.
The MIC of the formulations for Lichtheimia ramosa was assayed.

Structure (SMILES): C[C@@H]1[C@H](O)[C@@H](C)/C=C/C=C/C=C/C=C/C=C/C=C/C=C/[C@H](O[C@@H]2O[C@H](C)[C@@H](O)[C@H](N)[C@@H]2O)C[C@@H]2O[C@](O)(C[C@@H](O)C[C@@H](O)[C@H](O)CC[C@@H](O)C[C@@H](O)CC(=O)O[C@H]1C)C[C@H](O)[C@H]2C(=O)O [AmB, amphotericin B]
- MIC0 (MIC of AmB in the absence of surfactant) [1]: 0.51 µg/mL
- MIC0 (MIC of AmB in the absence of surfactant) [2]: 0.25 µg/mL
- MIC0 (MIC of AmB in the absence of surfactant) [3]: 0.19 µg/mL
- MIC0 (MIC of AmB in the absence of surfactant) [4]: 0.68 µg/mL
- MIC0 (MIC of AmB in the absence of surfactant) ([5]; L. corymbifera 1): 0.36 µg/mL
- MIC0 (MIC of AmB in the absence of surfactant) ([5]; L. corymbifera 2): 0.06 µg/mL
- MIC0 (MIC of AmB in the absence of surfactant) ([5]; L. corymbifera 3): 0.25 µg/mL
- MIC (agent alone) [6]: less than 1 mg/L
- MIC (AmB) [7]: 1 µg/mL (≈ 1.08 µM)
- MIC (AmB) [8]: 1 µg/mL (≈ 1.08 µM)
- MIC (AmB) [9]: 1 µg/mL (≈ 1.08 µM)
- MIC of AmB [10]: 1 µg/mL
- MIC (AmB) ([11]; A. fumigatus 20 (ATCC 204305)): 2 µg/mL (≈ 2.16 µM)
- MIC (AmB) ([11]; A. fumigatus R2 (clinical azole-resistant strain AfR2)): 2 µg/mL (≈ 2.16 µM)
- MIC (AmB) ([11]; Aspergillus fumigatus 16 (ATCC 16424)): 2 µg/mL (≈ 2.16 µM)
- MIC of AmB [12]: 1 µg/mL
- MIC of AmB [13]: 1 µg/mL
- MIC of AmB [14]: 0.5 µg/mL
